{
  "source": "paper PMC9388626",
  "about": "“STUB1 is an intracellular checkpoint for interferon gamma sensing” (Scientific Reports, 2022)",
  "key": {"B16-F10 cells [1]": {"tested_on": "B16-F10 cells", "test": "Proteomics by mass spectrometry", "format": "cell-based, murine", "method": "After overnight incubation, the culture media were replaced with fresh media (DMEM + 10% FBS) supplemented with 0.03 ng ml^−1 of recombinant mouse IFNγ (R&D Systems, #485-MI-100). After 24 h treatment, the cells were trypsinized, collected and washed twice with 0.5 ml PBS. The cell pellets collected from three independent experiments on separate day were lysed in 100 µl of lysis buffer containing 4% sodium dodecyl sulfate, 50 mM Tris–HCl pH 7.5, 50 µg ml^−1 of DNase (Roche, #10104159001), 50 µg ml^−1 of RNase (Roche, #10109169001) and Halt protease inhibitor cocktail (Thermo Scientific, #78430) on ice for 30 min followed by 65 °C for 30 min. Lysates were clarified by centrifugation at 16,000 g at 10 °C for 30 min. Protein content was re-extracted from the pellet with 50 µl of lysis buffer, sonicated with a single burst using a probe sonicator and heated at 95 °C for 10 min before centrifugation at 16,000 g at 10 °C for 15 min. Lysates from first and second extractions were pooled. Protein concentration was determined using BCA protein assay kit (Pierce, # 23225). Detergent removal and protein digestion were performed in centrifugal suspension trap columns (Protifi, C02-micro) according to the manufacturer’s instructions. Briefly, 80 µg protein extract from each sample was reduced with 50 mM dithiothreitol (Sigma, #43815) at 95 °C for 10 min and then alkylated with 100 mM iodoacetamide (Sigma, I2512) in the dark at ambient temperature for 30 min. The samples were acidified with 1.2% of phosphoric acid and mixed well with washing buffer consisting of 90% methanol and 100 mM ammonium bicarbonate. The samples were transferred to the suspension trap columns and centrifuged at 4000 g for 30 s. The columns were washed 3 times with washing buffer. Proteins trapped in the suspension bed were digested in 50 mM ammonium bicarbonate with trypsin and endoproteinase Lys-C (Promega, V5073) at enzyme to protein ratio 1:25 in a 47 °C waterbath for 2 h. Peptides were eluted firstly with 50 mM ammonium bicarbonate, then with 0.2% formic acid and lastly with 50% acetonitrile and 0.2% formic acid. The eluates were pooled and vacuum dried completely. Dried peptides were reconstituted with 0.1% formic acid in water, followed by injecting 4 µg for mass spectrometry analysis. Peptides were loaded on a reverse phase EASY-Spray column (50 cm × 75 μm inner diameter) operated using Easy-nLC 1200 (Thermo Fisher Scientific) coupled online to a Q-Exactive HF-X mass spectrometer (Thermo Fisher Scientific). Peptides were separated using a 120 min linear gradient at a flow rate of 300 nL min^−1. The Q-Exactive was operated in ‘top-10’ data-dependent acquisition (DDA) mode with full scan acquired at a resolution of 120,000 (scan range 200–1800 m/z) with an automatic gain control (AGC) target of 3e6. The top ten most abundant ions from the full scan were isolated with an isolation width of 0.7 m/z and fragmented by higher energy collisional dissociation (HCD) with normalized collision energy (NCE) of 27. MS/MS scan was acquired at a resolution of 30,000 with an AGC target of 1e5. The default charge state was set at 2 and dynamic exclusion was enabled for 10 s. Maximum ion injection time for full scan and MS/MS scan were 100 ms and 105 ms respectively.\nDDA raw files were processed with Proteome Discoverer 2.4 using Sequest HT search engine where mass spectrometric data was searched against SwissProt TaxID 10090 mouse database (v2017-10-25). Percolator was used to validate search results based on the concatenated mode where only the best scoring PSMs (target/decoy) were considered. Trypsin was specified as the enzyme, cleaving after all lysine and arginine residues and allowing up to two missed cleavages. Carbamidomethylation of cysteines was set as fixed modification while variable modifications included oxidation of methionine, acetylation of N-terminus, N-terminal loss of methionine and N-terminal loss of metionine along with the addition of an acetyl group. […]"}, "B16-F10 cells [2]": {"tested_on": "B16-F10 cells", "test": "Validation of monoclonal Stub1-knockout lines (Western, ICE CRISPR analysis)", "format": "cell-based, murine", "settings": "single clone from Stub1-knockout B16-F10 cells", "method": "Tumour cells were genetically edited by electroporating the Cas9/crRNA/tracrRNA or Cas9/sgRNA ribonucleoprotein (RNP) complexes into cells using the 4D-nucleofector system (Lonza). To prepare the guide RNA complex, a 1:1 mixture of Alt-R crRNA and tracrRNA (50 µM each, IDT) in nuclease-free duplex buffer (IDT) was heated at 95 °C for 5 min, followed by cooling to room temperature. The crRNA/tracrRNA complex or the sgRNA (150 pmol) was mixed with Alt-R S.p. HiFi Cas9 Nuclease V3 (100 pmol, IDT, #1081060), and the resulting mixture was incubated at room temperature for 10 min to form the final RNP complexes which were used immediately. In parallel, the harvested tumour cells were rinsed with PBS. After re-suspending in 20 µl nucleofactor solution (Lonza), the cell suspension was added to the final RNP complexes (4.6 µl) in microcentrifuge tube. The resulting cell suspension was transferred to a designated well of nucleocuvette strip which was then pulsed with the nucleofector system using a preset program. After pulsing, culture media (75 µl) was added and the cell suspension was transferred to a designated well of a 12-well plate filled with 1.0 ml culture media. After 48 h incubation, the CRISPR-edited B16-F10 were subcloned by limiting dilution. The monoclonal cell lines were validated by Western blotting and analyzing the Sanger sequencing results of the PCR amplicon (~ 800 bp) flanking the crRNA-targeted site using ICE v2 CRISPR analysis tool (Synthego). For CT26, the cells were sorted for the top 50th percentile of IFNGR1-high population using BD FACSAria to enrich for the Stub1-null cells (Supplementary Fig. 10a). Human tumour cells, e.g., DU145, PC-3 and MCF7, were used right after the CRISPR editing. Sorting or subcloning was not applied to the human cell lines, since these lines were studied for a brief period in in vitro setting. Loss of STUB1 protein in the human cell lines was confirmed by Western blot analysis."}},
  "data": [
    {"substance": "gStub1 #1 (guide GCATTGCTAAGAAGAAGCGC; chemistry not given here)", "values": [
      {"measurement": "Log2(FC)", "setting": "B16-F10 cells [1]; B2M (Fig. 2g)", "result": 2.591},
      {"measurement": "Log2(FC)", "setting": "B16-F10 cells [1]; BST2 (Fig. 2g)", "result": 2.607},
      {"measurement": "Log2(FC)", "setting": "B16-F10 cells [1]; ERAP1 (Fig. 2g)", "result": 2.501},
      {"measurement": "Log2(FC)", "setting": "B16-F10 cells [1]; GBP2 (Fig. 2g)", "result": 4.916},
      {"measurement": "Log2(FC)", "setting": "B16-F10 cells [1]; H2-D1 (Fig. 2g)", "result": 1.708},
      {"measurement": "Log2(FC)", "setting": "B16-F10 cells [1]; IFI35 (Fig. 2g)", "result": 2.548},
      {"measurement": "Log2(FC)", "setting": "B16-F10 cells [1]; IRGM1 (Fig. 2g)", "result": 4.787},
      {"measurement": "Log2(FC)", "setting": "B16-F10 cells [1]; MOV10 (Fig. 2g)", "result": 1.934},
      {"measurement": "Log2(FC)", "setting": "B16-F10 cells [1]; PSME1 (Fig. 2g)", "result": 1.818},
      {"measurement": "Log2(FC)", "setting": "B16-F10 cells [1]; PSME2 (Fig. 2g)", "result": 2.036},
      {"measurement": "Log2(FC)", "setting": "B16-F10 cells [1]; STAT1 (Fig. 2g)", "result": 2.521},
      {"measurement": "Log2(FC)", "setting": "B16-F10 cells [1]; STAT3 (Fig. 2g)", "result": 1.035},
      {"measurement": "Log2(FC)", "setting": "B16-F10 cells [1]; TGTP1/TGTP2 (Fig. 2g)", "result": 7.1},
      {"measurement": "Comment (knock-out by Western blot and ICE analysis)", "setting": "B16-F10 cells [2]", "result": "complete knock-out as assessed by Western blot and ICE analysis"},
      {"measurement": "Indel", "setting": "B16-F10 cells [2]", "result": "-12 -15"},
      {"measurement": "Indel % (by Synthego ICE)", "setting": "B16-F10 cells [2]", "result": 93, "unit": "%"}
    ]}
  ]
}
